Data taken from US12077503B2, “Substituted cyclic amides and their use as herbicides” (FMC CORPORATION, priority 2015, dated 2024).

Tests used:
Type in all cases: in vivo
[1] = system: giant foxtail (Setaria faberii); experiment: Test A preemergence; details: Setaria faberi, pre-emergence, 240 h, Preemergence
Outline: (§1)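 In a loam soil and sand blend, planted seeds got a preemergence directed soil spray, and young plants at the one- to two-leaf stage, 2–10 cm high, got a postemergence application; ~10 d greenhouse hold; injury rated visually, 0 = none, 100 = complete control.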

Kochia (Kochia scoparia) [2] = experiment: Test A preemergence; details: Bassia scoparia, pre-emergence, 240 h, Preemergence
Outline: as §1

[3] = system: barnyardgrass (Echinochloa crus-galli); experiment: Test A preemergence; details: Echinochloa crus-galli, pre-emergence, 240 h, Preemergence
Outline: as §1

[4] = system: pigweed (Amaranthus retroflexus); experiment: Test A preemergence; details: Amaranthus retroflexus, pre-emergence, 240 h, Preemergence
[5] = system: ragweed (common ragweed, Ambrosia elatior); experiment: Test A preemergence; details: Ambrosia artemisiifolia, pre-emergence, 240 h, Preemergence
Outline: as §1

[6] = system: ryegrass, Italian (Italian ryegrass, Lolium multiflorum); experiment: Test A preemergence; details: Lolium multiflorum, pre-emergence, 240 h, Preemergence
Outline: as §1

rice (Oryra sativa) = experiment: Test B flooded paddy test; details: Oryza sativa, 250 g ai/ha, Flood; 0 to 100 scale where 0 is no effect and 100 is complete control; read-out: Rice plant response rating
Outline: (§2)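 Plants at 2-leaf stage flooded to 3 cm above soil, with compounds applied directly to paddy water and that depth maintained. Plants kept in greenhouse 13–15 d. Visual rating versus controls on a 0 (no effect) to 100 (complete control) scale.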

[7] = system: barnyardgrass (Echinochloa crus-galli); experiment: Test B flooded paddy test; details: Echinochloa crus-galli, 250 g ai/ha, Flood; 0 to 100 scale where 0 is no effect and 100 is complete control; read-out: Barnyardgrass plant response rating
Outline: as §2

[8] = system: ducksalad (Heteranthera limosa); experiment: Test B flooded paddy test; details: Heteranthera limosa, 250 g ai/ha, Flood; 0 to 100 scale where 0 is no effect and 100 is complete control; read-out: Ducksalad plant response rating
Outline: as §2

[9] = system: sedge, umbrella (small-flower umbrella sedge, Cyperus difformis); experiment: Test B flooded paddy test; details: Cyperus difformis, 250 g ai/ha, Flood; 0 to 100 scale where 0 is no effect and 100 is complete control; read-out: Sedge, Umbrella plant response rating
Outline: as §2

[10] = system: giant foxtail (Setaria faberii); experiment: Test A postemergence; details: Setaria faberi, post-emergence, 240 h, Postemergence, read-out: Plant response rating, Foxtail, Giant
Outline: as §1

Kochia (Kochia scoparia) [11] = experiment: Test A postemergence; details: Bassia scoparia, post-emergence, 240 h, Postemergence, read-out: Plant response rating, Kochia
Outline: as §1

[12] = system: Galium (catchweed bedstraw, Galium aparine); experiment: Test A postemergence; details: Galium, post-emergence, 240 h, Postemergence, read-out: Plant response rating, Galium
Outline: as §1

[13] = system: barnyardgrass (Echinochloa crus-galli); experiment: Test A postemergence; details: Echinochloa crus-galli, post-emergence, 240 h, Postemergence, read-out: Plant response rating, Barnyardgrass
Outline: as §1

[14] = system: pigweed (Amaranthus retroflexus); experiment: Test A postemergence; details: Amaranthus retroflexus, post-emergence, 240 h, Postemergence, read-out: Plant response rating, Pigweed
Outline: as §1

[15] = system: blackgrass (Alopecurus myosuroides); experiment: Test A postemergence; details: Alopecurus myosuroides, post-emergence, 240 h, Postemergence, read-out: Plant response rating, Blackgrass
Outline: as §1

corn (Zea mays) = experiment: Test A postemergence; details: Zea mays, post-emergence, 240 h, Postemergence
Outline: as §1

[16] = system: ragweed (common ragweed, Ambrosia elatior); experiment: Test A postemergence; details: Ambrosia artemisiifolia, post-emergence, 240 h, Postemergence, read-out: Plant response rating, Ragweed
Outline: as §1

[17] = system: ryegrass, Italian (Italian ryegrass, Lolium multiflorum); experiment: Test A postemergence; details: Lolium multiflorum, post-emergence, 240 h, Postemergence, read-out: Plant response rating, Ryegrass, Italian
Outline: as §1

[18] = system: wheat (Triticum aestivum); experiment: Test A postemergence; details: Triticum aestivum, post-emergence, 240 h, Postemergence, read-out: Plant response rating, Wheat
Outline: as §1

[19] = 125 g ai/ha, visual injury after approximately 10 d, 0 to 100 scale where 0 is no effect and 100 is complete control
[20] = 31 g ai/ha, visual injury after approx. 10 d, 0 to 100 scale, 0 no effect, 100 complete control

CN1CC[C@H](c2ccccc2C(F)(F)F)[C@@H](C(=O)Nc2cccc(F)c2F)C1=O [Compound 1009]
0%: pest or weed control at 125 g/ha ([1]; 125 g ai/ha, visual injury rating after approximately 10 d, read-out: Foxtail, Giant plant response rating (0 to 100 scale, 0 is no effect, 100 is complete control)) | pest or weed control at 31 g/ha ([1]; 31 g ai/ha, 0 to 100 scale (0 no effect, 100 complete control), read-out: Plant response rating, Foxtail, Giant) | pest or weed control at 31 g/ha (Kochia (Kochia scoparia) [2]; 31 g ai/ha, 0 to 100 scale where 0 is no effect and 100 is complete control, read-out: Kochia plant response rating) | pest or weed control at 125 g/ha (Kochia (Kochia scoparia) [2]; 125 g ai/ha, visual injury rating after approximately 10 d, read-out: Kochia plant response rating (0 to 100 scale, 0 is no effect, 100 is complete control)) | pest or weed control at 125 g/ha ([3]; 125 g ai/ha, visual injury rating after approximately 10 d, read-out: Barnyardgrass plant response rating (0 to 100 scale, 0 is no effect, 100 is complete control)) | pest or weed control at 31 g/ha ([3]; 31 g ai/ha, 0 to 100 scale (0 no effect, 100 complete control), read-out: Plant response rating, Barnyardgrass) | pest or weed control at 31 g/ha ([4]; 31 g ai/ha, 0 to 100 scale where 0 is no effect and 100 is complete control, read-out: Pigweed plant response rating) | pest or weed control at 125 g/ha ([4]; 125 g ai/ha, visual injury rating after approximately 10 d, read-out: Pigweed plant response rating (0 to 100 scale, 0 is no effect, 100 is complete control)) | pest or weed control at 31 g/ha ([5]; 31 g ai/ha, 0 to 100 scale where 0 is no effect and 100 is complete control, read-out: Ragweed plant response rating) | pest or weed control at 125 g/ha ([5]; 125 g ai/ha, visual injury rating after approximately 10 d, read-out: Ragweed plant response rating (0 to 100 scale, 0 is no effect, 100 is complete control)) | pest or weed control at 31 g/ha ([6]; 31 g ai/ha, 0 to 100 scale where 0 is no effect and 100 is complete control, read-out: Ryegrass, Italian plant response rating) | pest or weed control at 125 g/ha ([6]; 125 g ai/ha, visual injury rating after approximately 10 d, read-out: Ryegrass, Italian plant response rating (0 to 100 scale, 0 is no effect, 100 is complete control)) | pest or weed control at 250 g/ha (rice (Oryra sativa)) | pest or weed control at 250 g/ha [7] | pest or weed control at 250 g/ha [8] | pest or weed control at 250 g/ha [9] | pest or weed control at 125 g/ha [10, 19] | pest or weed control at 31 g/ha [10, 20] | pest or weed control at 125 g/ha (Kochia (Kochia scoparia) [11]; [19]) | pest or weed control at 31 g/ha (Kochia (Kochia scoparia) [11]; [20]) | pest or weed control at 125 g/ha [12, 19] | pest or weed control at 31 g/ha [12, 20] | pest or weed control at 125 g/ha [13, 19] | pest or weed control at 31 g/ha [13, 20] | pest or weed control at 125 g/ha [14, 19] | pest or weed control at 31 g/ha [14, 20] | pest or weed control at 125 g/ha [15, 19] | pest or weed control at 31 g/ha [15, 20] | Corn plant response rating (crop injury, 0 = no effect, 100 = complete kill) at 125 g/ha (corn (Zea mays); [19]) | Corn plant response rating (crop injury, 0 = no effect, 100 = complete kill) at 31 g/ha (corn (Zea mays); [20]) | pest or weed control at 125 g/ha [16, 19] | pest or weed control at 31 g/ha [16, 20] | pest or weed control at 125 g/ha [17, 19] | pest or weed control at 31 g/ha [17, 20] | plant injury at 125 g/ha [18, 19] | plant injury at 31 g/ha [18, 20]
